Measurements from patent US20180332847A1, “ANTIMICROBIAL METAL CARBOXYLATE-BENZISOTHIAZOLINONE MIXTURES” (Troy Corporation, priority 2017, published 2018).

Experiments:
Assay type in all cases: cell-based
Saccharomyces cervisiae = experiment: Minimum Inhibitory Concentration (MIC) by spiral plater / spiral gradient endpoint against Saccharomyces cervisiae; details: quantity of BIT used alone that gives the desired effect; calcium gluconate-BIT series; Saccharomyces cervisiae
Experimental: (§1) Synergistic Index=Qa/QA+Qb/QB [Equation No. 1] • where Qa=the quantity of component A used in a binary mixture that gives the desired effect • QA=the quantity of component A which when used alone gives the desired effect • Qb=the quantity of component B used in a binary mixture that gives the desired effect • QB=the quantity of component B which when used alone gives the desired effect
(§2) Minimum Inhibitory Concentration (“MIC”) for each of the antimicrobial compositions was determined against a test microbe, which in this case was a spore suspension of the fungus Alternaria alternata, with the aid of an Autoplate 4000 spiral plater that is commercially available from Spiral Biotech, Inc., Norwood, Mass., and its accompanying spiral gradient endpoint software (hereinafter referred to as “the SGE software”). […]
(§3) Inoculated spiral gradient plates were incubated for 48 hours in an incubator at 28° C. […] This growth endpoint value (expressed in mm as measured from center point of the Petri plate) was used to calculate MIC for the mixture, expressed as parts per million.
Utilizing the procedure described above in Example 1, Minimum Inhibitory Concentration (“MIC”) for each of the antimicrobial compositions was determined against a test microbe, which in this case was a spore suspension of the yeast Saccharomyces cervisiae. […]

Pseudomonas aeruginosa = experiment: Minimum Inhibitory Concentration (MIC) by spiral plater / spiral gradient endpoint against Pseudomonas aeruginosa; details: quantity of BIT used alone that gives the desired effect, Pseudomonas aeruginosa
Experimental: as §1
(§4) Minimum Inhibitory Concentration (“MIC”) for each of the antimicrobial compositions was determined against a test microbe, which in this case was a spore suspension of the fungus Alternaria alternata, with the aid of an Autoplate 4000 spiral plater that is commercially available from Spiral Biotech, Inc., Norwood, Mass., and its accompanying spiral gradient endpoint software (hereinafter referred to as “the SGE software”). The spiral plater automates the normal serial dilution method for determining MICs. Although the details of the SGE software are held confidentially by Spiral Biotech, Inc., they are believed to consistent with the principles set forth in “Measurement of MICs of antibacterial agents by spiral gradient endpoint compared with conventional dilution method” J. H. Paton, H. A. Holt, and M. J. Bywater—Int. J. Exp. Clin. Chemother, 1990.
The spiral plater automatically applied 54.3 micro-liters of each antimicrobial composition of interest to the surface of 150 millimeter malt agar plates using an exponential application gradient. The concentration of the antimicrobial concentration was greatest near the center of the Petri plates and decreased toward the edges. Antimicrobial composition gradients were allowed to air dry at room temperature for 1 to 4 hours at 23° C. before inoculation with test microbe. Spiral gradient plates were inoculated by streaking with cotton swabs that had been soaked in test microbe spore suspension. Streaks were applied in a radial pattern, using a paper template generated by the SGE software to guide the application. Eight radii were inoculated per Petri plate. Each radius is considered as one replicated observation.
Inoculated spiral gradient plates were incubated for 48 hours in an incubator at 28° C. Visible growth of the test microbe developed along the radial streaks and ended where the concentration of the antimicrobial composition was sufficient to prevent growth. This growth endpoint value (expressed in mm as measured from center point of the Petri plate) was used to calculate MIC for the mixture, expressed as parts per million.
Utilizing the procedure described above in Example 1, Minimum Inhibitory Concentration (“MIC”) for each of the antimicrobial compositions was determined against a test microbe, which in this case was a spore suspension of the bacterium Pseudomonas aeruginosa. Several antimicrobial compositions containing calcium gluconate, BIT, or both in water were investigated, as shown below in Table 7.
Utilizing the procedure described above in Example 1, Minimum Inhibitory Concentration (“MIC”) for each of the antimicrobial compositions was determined against a test microbe, which in this case was a […] Pseudomonas aeruginosa. Several antimicrobial compositions containing calcium glycerate, BIT, or both in water were investigated, as shown below in Table 13.
Utilizing the procedure described above in Example 1, Minimum Inhibitory Concentration (“MIC”) of certain antimicrobial compositions was determined against a test microbe, which in this case was a spore suspension of the bacterium Pseudomonas aeruginosa. Several antimicrobial compositions containing zinc gluconate, BIT, or both in water were investigated, as shown below in Table 19.

Klebsiella pneumoniae = experiment: Minimum Inhibitory Concentration (MIC) by spiral plater / spiral gradient endpoint against Klebsiella pneumoniae; details: quantity of BIT used alone that gives the desired effect, calcium ethylhexanoate-BIT series
Experimental: as §1, §2, §3
Utilizing the procedure described above in Example 1, Minimum Inhibitory Concentration (“MIC”) for each of the antimicrobial compositions was determined against a test microbe, which in this case was a spore suspension of the bacteria Klebsiella pneumoniae. […]

Escherichia coli = experiment: Minimum Inhibitory Concentration (MIC) by spiral plater / spiral gradient endpoint against Escherichia coli
Experimental: as §1, §4
The spiral plater automatically applied 54.3 micro-liters of each antimicrobial composition of interest to the surface of 150 millimeter malt agar plates using an exponential application gradient. The concentration of the antimicrobial concentration was greatest near the center of the Petri plates and decreased toward the edges. […]
as §3
Utilizing the experimental procedure described above in Example 1, the MIC against Escherichia coli of several antibacterial compositions containing zinc gluconate, BIT, or both in water were determined.

[1] = system: mixed bacterial inoculum: Pseudomonas aeruginosa (ATCC #10145), Escherichia coli (ATCC #11229), Enterobacter aerogenes (ATCC #13048), Alcaligenes faecalis …; experiment: Two-part bacterial challenge of acrylic latex paint samples with a mixed inoculum (performance ratings); parameters: key to Performance Ratings Week 1, 1 Day / Performance Ratings Week 1, 2 Days / Performance Ratings Week 1, 8 Days / Performance Ratings Week 2, 1 Day / Performance Ratings Week 2, 2 Days / Performance Ratings Week 2, 8 Days: 0: No bacterial growth; 1: Trace of bacterial growth; 2: Light bacterial growth; 3: Moderate bacterial growth; 4: Heavy bacterial growth; details: for Performance Ratings Week 1, 1 Day: Week 1, 1 Day after inoculation; for Performance Ratings Week 1, 2 Days: Week 1, 2 Days after inoculation; for Performance Ratings Week 1, 8 Days: Week 1, 8 Days after inoculation; for Performance Ratings Week 2, 1 Day: Week 2, 1 Day after inoculation; for Performance Ratings Week 2, 2 Days: Week 2, 2 Days after inoculation; for Performance Ratings Week 2, 8 Days: Week 2, 8 Days after inoculation
Experimental: In order to quantify the antibacterial effectiveness of an antimicrobial composition of interest, samples were prepared by adding various amounts of the antimicrobial composition to identical volumes of a paint that contained no preservatives and was not contaminated by bacteria. In this case, the test sample was a white, aqueous-based, acrylic latex paint. The paint included an acrylic resin, and conventional additives such as surfactant, thickener, defoamer, and titanium oxide.
The samples of the paint were subjected to a two-part challenge procedure and the sample that provided acceptable anti-bacterial protection with the lowest concentration of the antimicrobial composition was identified. Each part of the anti-bacterial challenge consisted of a 7-day test cycle. The parts were performed consecutively over 14 test days.
Challenge testing was accomplished using a mixed bacterial inoculum as the contamination event. These bacteria are Pseudomonas aeruginosa (ATCC #10145), Escherichia coli (ATCC #11229), Enterobacter aerogenes (ATCC #13048), and Alcaligenes faecalis (ATCC #25094). To prepare the test inoculum, each type of bacteria was harvested separately in nutrient broth. Just before use in the challenge test, equal strengths of each bacterial culture were mixed to obtain an inoculum of approximately 10^8 colony forming units per milliliter (cfu/mL).
After incubation, both control blanks and samples containing preservatives of interest were inoculated with the mixed inoculum to a final of 1.0 weight %. […]
Performance ratings of 0, 1, 2, 3 or 4 for each inoculated paint sample were determined by visual inspection of the streak lines, according to the definitions set forth below in Table 25.

Q: What does the source list for `O=c1[nH]sc2ccccc12` [BIT, 1,2-benzisothiazol-3(2H)-one]?
A: QB (Saccharomyces cervisiae): 61 ppm; QB (Pseudomonas aeruginosa; calcium gluconate-BIT series): 85 ppm; QB (Pseudomonas aeruginosa; calcium glycerate-BIT series): 27.5 ppm; QB (Pseudomonas aeruginosa; zinc gluconate-BIT series): 661 ppm; QB (Klebsiella pneumoniae): 27 ppm; QB (Escherichia coli; MIC of BIT alone for Escherichia coli (average of Trials 1, 2), used for SI): 136 ppm; ppm of BIT alone providing the same inhibition (Escherichia coli; zinc gluconate-BIT series, Escherichia coli): 136 ppm; Performance Ratings Week 1, 1 Day ([1]; 50 ppm in acrylic latex paint): 4; Performance Ratings Week 1, 2 Days ([1]; 50 ppm in acrylic latex paint): 4; Performance Ratings Week 1, 8 Days ([1]; 50 ppm in acrylic latex paint): 4; Performance Ratings Week 2, 1 Day ([1]; 50 ppm in acrylic latex paint): 4; Performance Ratings Week 2, 2 Days ([1]; 50 ppm in acrylic latex paint): 4; Performance Ratings Week 2, 8 Days ([1]; 50 ppm in acrylic latex paint): 4; Performance Ratings Week 1, 1 Day ([1]; 500 ppm in acrylic latex paint): 4; Performance Ratings Week 1, 2 Days ([1]; 500 ppm in acrylic latex paint): 2; Performance Ratings Week 1, 8 Days ([1]; 500 ppm in acrylic latex paint): 0; Performance Ratings Week 2, 1 Day ([1]; 500 ppm in acrylic latex paint): 4; Performance Ratings Week 2, 2 Days ([1]; 500 ppm in acrylic latex paint): 4; Performance Ratings Week 2, 8 Days ([1]; 500 ppm in acrylic latex paint): 0
